Data from paper PMC9127750, “Structure-based design of CDC42 effector interaction inhibitors for the treatment of cancer” (Cell reports, 2022).
Several values for one entry are separate records, joined by “and”; a condition that tells them apart may be missing. Equal entries are not always repeated.

System: WM3248 melanoma cells, 486 antibodies
Assay: Reverse phase protein arrays (RPPA);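 for CA9.R.C RPPA level: ratio of treated to vehicle (0 µM) normalized linear protein signal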;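 for CD171.M.V RPPA level: ratio of treated to vehicle (0 µM) normalized linear protein signal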
Format: cell-based, Human
Details: 10 uM
Excerpt: Pellets were snap frozen in liquid nitrogen and shipped to MD Anderson Cancer Center core RPPA facility for RPPA analysis (Table S5). Three biological replicates for each sample were generated.
Nomenclatures on the RPPA heatmaps: name_of_antibody.species_of_antibody.status_of_antibody. V - antibody validated; C - validation of antibody in progress; Q - antibody nonspecific; E – under evaluation; antibodies raised in M - mouse, G - goat, R - rabbit, or T - rat.

## CN(C)c1cccc(Nc2cc(-c3ccccc3)nc(C3CCNCC3)n2)c1 [ARN22089, N1,N1-dimethyl-N3-(6-phenyl-2-(piperidin-4-yl)pyrimidin-4-yl)benzene-1,3-diamine]
Average of 3 replicates
  RPPA signal, antibody VEGFR.2_pY1175.R.C, Average: 1.049
  RPPA signal, antibody VHL.EPPK1.M.C, Average: 1.196
  RPPA signal, antibody VHL.R.C, Average: 1.035
  RPPA signal, antibody Vinculin.M.V, Average: 0.966
  RPPA signal, antibody WIPI1.R.C, Average: 1.121
  RPPA signal, antibody WIPI2.R.C, Average: 0.943
  RPPA signal, antibody WTAP.R.V, Average: 1.119
  RPPA signal, antibody Wee1.R.C, Average: 1.020
  RPPA signal, antibody Wee1_pS642.R.C, Average: 0.998
  RPPA signal, antibody XBP.1.G.C, Average: 1.065
  RPPA signal, antibody XIAP.R.C, Average: 1.012
  RPPA signal, antibody XPA.M.V, Average: 1.058
  RPPA signal, antibody XRCC1.R.C, Average: 1.060
  RPPA signal, antibody YAP_pS127.R.V, Average: 0.978
  RPPA signal, antibody YB1_pS102.R.V, Average: 0.958
  RPPA signal, antibody YES1.R.V, Average: 1.020
  RPPA signal, antibody YTHDF2.R.V, Average: 0.990
  RPPA signal, antibody YTHDF3.R.C, Average: 1.018
  RPPA signal, antibody ZAP.70.R.V, Average: 1.001
  RPPA signal, antibody ZEB1.R.V, Average: 1.024
Individual replicates
  RPPA signal, antibody TSC1.R.C: 0.828 and 0.939
  RPPA signal, antibody TTF1.R.V: 0.920 and 0.873 and 1.035
  RPPA signal, antibody TUFM.R.V: 1.384 and 1.533
  RPPA signal, antibody Tuberin.R.V: 1.063 and 0.958 and 0.778
  RPPA signal, antibody Tuberin_pT1462.R.V: 1.389 and 0.896
  RPPA signal, antibody Twist.M.C: 1.022 and 1.114
  RPPA signal, antibody Tyro3.R.V: 1.207 and 1.432 and 1.052
  RPPA signal, antibody U.Histone.H2B.R.C: 0.675 and 0.846 and 0.974
  RPPA signal, antibody UBAC1.R.V: 0.909 and 0.974 and 0.962
  RPPA signal, antibody UBQLN4.M.C: 1.002 and 0.908 and 1.014
  RPPA signal, antibody UGT1A.M.V: 1.078 and 1.131 and 1.024
  RPPA signal, antibody ULK1_pS757.R.C: 0.907 and 0.952
  RPPA signal, antibody UQCRC2.M.C: 0.984 and 1.001 and 0.779
  RPPA signal, antibody UVRAG.R.C: 0.941 and 0.945 and 1.016
  RPPA signal, antibody VASP.R.V: 0.853 and 0.873 and 0.935
  RPPA signal, antibody VAV1.R.C: 0.917 and 0.930 and 0.971
  RPPA signal, antibody VEGFR.2.R.V: 0.830 and 0.863 and 1.064
  RPPA signal, antibody VEGFR.2_pY1175.R.C: 1.135 and 1.035 and 0.978
  RPPA signal, antibody VHL.EPPK1.M.C: 1.361 and 1.047
  RPPA signal, antibody VHL.R.C: 1.048 and 1.060 and 0.997
  RPPA signal, antibody Vinculin.M.V: 0.834 and 1.032 and 1.034
  RPPA signal, antibody WIPI1.R.C: 1.084 and 1.260 and 1.018
  RPPA signal, antibody WIPI2.R.C: 1.004 and 0.919 and 0.906
  RPPA signal, antibody WTAP.R.V: 0.973 and 1.303 and 1.081
  RPPA signal, antibody Wee1.R.C: 0.837 and 1.193 and 1.031
  RPPA signal, antibody Wee1_pS642.R.C: 0.842 and 1.057
  RPPA signal, antibody XBP.1.G.C: 1.054 and 1.065 and 1.076
  RPPA signal, antibody XIAP.R.C: 0.980 and 0.995 and 1.063
  RPPA signal, antibody XPA.M.V: 0.998 and 1.083
  RPPA signal, antibody XPF.R.C: 1.061 and 1.058 and 1.015
  RPPA signal, antibody XRCC1.R.C: 1.098 and 1.017
  RPPA signal, antibody YAP.R.C: 1.046 and 1.136 and 1.017
  RPPA signal, antibody YAP_pS127.R.V: 0.857 and 1.020 and 1.056
  RPPA signal, antibody YB1_pS102.R.V: 0.792 and 0.995
  RPPA signal, antibody YES1.R.V: 0.963 and 1.023
  RPPA signal, antibody YTHDF2.R.V: 0.973 and 0.926
  RPPA signal, antibody YTHDF3.R.C: 1.046 and 1.052 and 0.954
  RPPA signal, antibody ZAP.70.R.V: 0.965 and 0.999
  RPPA signal, antibody ZEB1.R.V: 0.993 and 0.988
replicates
  C.Raf.R.C RPPA level: 1.022 and 0.897 and 0.901
  C.Raf_pS338.R.V RPPA level: 0.937 and 0.962
  CA9.R.C RPPA level: 0.963 and 0.920 and 1.058
  CD2.M.C RPPA level: 1.046 and 1.013
  CD4.R.V RPPA level: 0.841 and 0.982 and 0.984
  CD5.M.C RPPA level: 1.032 and 1.016
  CD20.R.C RPPA level: 0.915 and 1.113 and 1.048
  CD26.R.V RPPA level: 0.862 and 0.937 and 1.046
  CD29.M.V RPPA level: 1.013 and 0.983 and 1.052
  CD31.M.V RPPA level: 1.033 and 1.057 and 1.013
  CD38.R.C RPPA level: 0.895 and 0.963
  CD44.R.C RPPA level: 1.029 and 1.050
  CD45.M.V RPPA level: 1.006 and 1.019
  CD49b.M.V RPPA level: 1.003 and 0.999
  CD68.M.C RPPA level: 1.022 and 1.011
  CD74.M.V RPPA level: 0.984 and 1.053
  CD134.R.V RPPA level: 1.005 and 1.057 and 0.995
  CD171.M.V RPPA level: 0.591 and 0.987 and 1.115
  CDK1_pT14.R.C RPPA level: 1.201 and 0.649 and 0.946
  CDK9.R.V RPPA level: 1.078 and 0.919
  CDKN2A.R.C RPPA level: 1.006 and 1.160
  CDT1.R.V RPPA level: 0.973 and 1.157 and 1.014
